In US9492508B2, “Parathyroid hormone analogs and uses thereof” (The General Hospital Corporation, priority 2010, dated 2016):
Entries after “also recorded” stand apart in the source; their conditions may differ. Ends that are not written are not given here.

Columns and labels:
[1] = target: T1, rat PTHR1 (RG) (Rattus norvegicus, UniProt P25961); assay: Competition binding, RG conformation of rat PTHR1
T1 construct: expressed in transfected cells
T1 sequence (P25961 27-591): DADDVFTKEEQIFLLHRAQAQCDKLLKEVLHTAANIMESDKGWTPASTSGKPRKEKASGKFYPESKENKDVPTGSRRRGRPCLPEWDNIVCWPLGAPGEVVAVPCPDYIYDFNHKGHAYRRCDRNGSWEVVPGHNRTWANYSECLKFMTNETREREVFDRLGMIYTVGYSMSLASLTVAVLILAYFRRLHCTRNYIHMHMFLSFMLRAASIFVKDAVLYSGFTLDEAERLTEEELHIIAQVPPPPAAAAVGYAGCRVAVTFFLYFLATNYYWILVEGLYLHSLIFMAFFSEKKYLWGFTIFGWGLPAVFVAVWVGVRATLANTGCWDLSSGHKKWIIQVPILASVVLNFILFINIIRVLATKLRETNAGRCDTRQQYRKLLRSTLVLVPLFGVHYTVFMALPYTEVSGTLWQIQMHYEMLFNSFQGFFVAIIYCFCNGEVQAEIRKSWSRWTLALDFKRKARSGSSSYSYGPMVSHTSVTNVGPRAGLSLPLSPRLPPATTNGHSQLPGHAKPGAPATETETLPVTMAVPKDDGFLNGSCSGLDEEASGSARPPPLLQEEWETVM
Excerpt: (§1) Briefly, the R^0 form of the receptor can be favored by addition of the non-hydrolyzable nucleotide analog GTPγS. The RG form can be favored, for example, by co-transfection of cells with a negative dominant Gαs subunit. […] Data are means of four experiments, each performed in duplicate. Curves were fit to the data using Graph-Pad Prism 4.0.

[2] = Solubility, in vitro precipitation assay (PBS pH 7.4 vs 10 mM acetic acid); format: physicochemical; conditions: PBS pH 7.4, 1 h room temperature, FIG. 16A
Protocol: The relative solubilities of SP-PTH-AAK (SEQ ID NO:4) and SP-PTH (SEQ ID NO:11) in different buffers were assessed in an in vitro precipitation assay. For each polypeptide, two vials, each containing 50 μg of lyophilized polypeptide powder, were prepared; one vial was reconstituted in 50 μl of PBS at pH 7.4; the other vial was reconstituted in 50 μl of 10 mM acetic acid (pH 2.9) to give final concentrations of 1.0 mg/ml […]. After one hour at room temperature, the vials were centrifuged at 15,000×g for 2 minutes. The supernatant was removed and the protein content assayed using the Pierce BCA assay (Thermo Fischer Scientific, Rockford, Ill.). For each polypeptide, the content of the PBS sample was expressed as percent of the content of the corresponding acetic acid sample.

[3] = in vivo; conditions: rat, iv, 24.3 nmol/kg
[4] = Stability in phosphate-citrate buffers and 10 mM acetic acid, reverse-phase HPLC; format: physicochemical; conditions: 4 weeks
Protocol: The amount of intact SP-PTH-AAK (SEQ ID NO:4) peptide remaining in the sample, as compared to the starting sample, was measured by rPHPLC.
Stability testing of SP-PTH-AAK (SEQ ID NO:4) was also performed. SP-PTH-AAK (SEQ ID NO:4) was stored at different peptide concentrations in 50 mM phosphate-citrate (PC) buffer (pH 4.0, 4.5, and 5.5) and 10 mM acetic acid at 5, 25, and 40° C. for 4 weeks.

[5] = target: T2, rat PTHR1 (R0) (Rattus norvegicus, UniProt P25961); assay: Competition binding, R0 conformation of rat PTHR1; conditions: for IC50: R0 conformation, mean of 4 experiments, read-out: Binding rat PTHR1 IC50 (Log M) R0 (converted)
T2 sequence (P25961 27-591): T1 sequence (P25961 27-591)
Excerpt: as §1

[6] = rat, in vivo, iv, 24.3 nmol/kg
[7] = Repetitive daily dosing in TPTX rats (10 days); format: in vivo, rat
Protocol: FIGS. 20A-20D are graphs showing effects of once-daily SP-PTH on serum and urine Ca in TPTX rats. TPTX and sham-control rats were treated once daily, for 10 days, via sc. injection with either vehicle (Sham and TPTX) or SP-PTH (SEQ ID NO:11) (1, 2. 4, or 8 nmol/kg), or with 1,25(OH)2D (0.075 or 0.2 μg/kg. orn). After the last injection on day 10, the rats were placed in metabolic cages, and jugular vein blood was obtained at 8 (FIG. 20A) and 24 hrs (FIG. 20B); urine was collected for the intervals 0-8 (FIG. 20C) and 8-24 hrs (FIG. 20D); means±s.e.m: n=5; ′˜, P vs vehicle <005.
In therapeutic use in humans, one would administer doses sufficient to only normalize blood Ca. A key experiment is to determine if it is indeed feasible to normalize sCa following a repetitive dosing regimen. We thus performed the experiment of FIGS. 20A-2D, in which TPTX rats were treated daily for 10 days with SP-PTH at doses of 1, 2, 4 and 8 nmol/kg (s.c). For comparison, 1,25(OH)2-vitamin-D (calcitriol) at doses of 0.075 and 0.2 mcg/kg (oral) were used for the same time periods.

[8] = 4 nmol/kg s.c. once daily 10 days

| Substance | binding to RG form of rat PTHR1, comparison in words ([1]; FIG. 1B) | IC50 ([1]; RG conformation, read-out: Binding rat PTHR1 IC50 nM RG (converted)) | solubility in PBS pH 7.4 (percent of acetic acid sample), in words [2] | MRT ([3]; Crl:CD(SD)) | Vd ([3]; Crl:CD(SD)) | clearance ([3]; Crl:CD(SD)) | half-life ([3]; Crl:CD(SD)) | AUC(0-t) [3] | stability, intact peptide by reverse-phase HPLC at 25° C. ([4]; 50 mM PC buffer pH 4.0, 4.5, 5.5 and 10 mM acetic acid, 25° C.) | stability at 40° C., HPLC finding ([4]; 40° C.) | binding to R0 form of rat PTHR1, comparison in words ([5]; FIG. 1A) | stronger binding to the R0 form of the rat PTH receptor as compared to PTH(1-34) ([5]; FIG. 1A) | EC50 ([5]; FIG. 1A, read-out: log EC50, binding to the R0 form of the rat PTH receptor (converted)) | IC50 [5] | AUCinf [6] | sCa at 8 hours after the last injection [7, 8] | sCa at 24 hours after the last injection [7, 8] | urine calcium excretion ([7]; SP-PTH 4 nmol/kg s.c. once daily 10 days) |
| --- | --- | --- | --- | --- | --- | --- | --- | --- | --- | --- | --- | --- | --- | --- | --- | --- | --- | --- |
| AVAEIQLMHQRAKWIQDARRRAFLHKLIAEIHTAEI-OH [SP-PTH-AAK, [Ala^1,3,12,18,22,Gln^10,Arg^11,Trp^14,Lys^26]PTH(1-14)/PTHrP(15-36)] | strongest binding; also recorded: increased | 0.1 nM | solubility similar to hPTH(1-34)NH2 | 5.83 min | 0.126 L/kg | 21.6 mL/min/kg | 7.27 min | 0.0187 µM·h | near full stability | a degraded product, likely a methionine-oxide derivative, was detected | strongest binding | greater than two orders of magnitude increase in binding | 0.2 nM | 0.209 nM | 1131 pmol·min/mL | – | – | – |
| AVAEIQLMHQRAKWIQDLRRRFFLHHLIAEIHTAEI-OH [SP-PTH, [Ala^1,3,12,Gln^10,Arg^11,Trp^14]PTH(1-14)/PTHrP(15-36)] | – | – | – | – | – | – | – | – | – | – | – | – | – | 1.45 nM | – | avoided hypercalcemia | maintained near-normal sCa | low at all time points |
